Results as given in patent US12036237B2, “Bromide source for use in treating autism spectral disorder” (INSERM (INSTITUT NATIONAL DE LA SANTE ET DE LA RECHERCHE …, priority 2016, dated 2024).
Entries after “also recorded” stand apart in the source; their conditions may differ.

Key:
Oprm1−/− mice [1] = experiment: Three-chamber social novelty preference test; conditions: bumetanide 0.5 mg/kg i.p. daily vs saline
Oprm1−/− mice [2] = experiment: Marble burying test; conditions: bumetanide 0.5 mg/kg i.p. daily
Oprm1−/− mice [3] = experiment: Motor stereotypies scoring; conditions: bumetanide 0.5 mg/kg i.p. daily
[4] = literature statement (Romermann et al, 2017); cited from earlier work
Oprm1−/− mice [5] = experiment: Direct social interaction test; conditions: Oprm1−/− mice, bumetanide 0.5 mg/kg i.p. daily vs saline
Oprm1−/− mice [6] = experiment: Novelty-suppressed feeding test
Oprm1−/− mice [7] = experiment: Y-maze exploration; conditions: bumetanide 0.5 mg/kg i.p. daily; for rate of same arm returns (cognitive stereotypies): Oprm1−/− mice

Structure (SMILES): CCCCNc1cc(C(=O)O)cc(S(N)(=O)=O)c1Oc1ccccc1 [bumetanide, Bumetanide]
- difference (mouse over toy) in number of nose contacts (Oprm1−/− mice [1]): restored the difference; also recorded: increased
- difference (preference for the mouse over the toy) in time spent in compartments (Oprm1−/− mice [1]): restored the difference; also recorded: successfully restored
- duration of close contacts with the living mouse (Oprm1−/− mice [1]): unable to reverse the deficit; also recorded: failed to restore
- time spent in close contacts with the living mouse (Oprm1−/− mice [1]): unable to reverse the deficit; also recorded: absence of effect
- number of marbles buried (Oprm1−/− mice [2]): did not significantly modify
- circling episodes (Oprm1−/− mice [3]; Oprm1−/− mice): efficiently suppressed
- stereotypic behaviour / motor stereotypies (overall) (Oprm1−/− mice [3]; Oprm1−/− mice): efficiently relieved stereotypic behaviour
- stereotypic shakes (Oprm1−/− mice [3]; Oprm1−/− mice): efficiently suppressed
- stereotypic behaviour / motor stereotypies (overall) (Oprm1−/− mice [3]; Oprm1−/− mice, listed as Bumetanide): suppressed motor stereotypies
- duration of burying episodes (Oprm1−/− mice [3]; all mice): no significant effect
- number of and time spent in burying episodes (Oprm1−/− mice [3]; all mice): increased
- number of rearing and grooming episodes (Oprm1−/− mice [3]; mutant or wild-type): did not change
- ability to cross the blood brain barrier [4]: inability; also recorded: low ability to cross the blood brain barrier
- number of and time spent in grooming episodes (Oprm1−/− mice [5]): only effective in reducing the number of grooming episodes
- number of grooming episodes following a social contact (Oprm1−/− mice [5]): only effective in reducing the number of grooming episodes
- number of nose contacts (Oprm1−/− mice [5]): no significant effect
- number of, time spent in and duration of paw contacts (Oprm1−/− mice [5]): no significant effect
- social interaction (overall) (Oprm1−/− mice [5]): only partially restored social interaction
- time spent in and duration of nose contacts (Oprm1−/− mice [5]): increased, but failed to completely rescue
- time spent in social contact (Oprm1−/− mice [5]): increased, but failed to completely rescue
- number of and time spent in grooming episodes (Oprm1−/− mice [5]; listed as Bumetanide): normalized
- number of grooming episodes following a social contact (Oprm1−/− mice [5]; listed as Bumetanide): normalized
- food intake back in the home cage (Oprm1−/− mice [6]; Oprm1 line, bumetanide 0.5 mg/kg i.p. daily): did not modify significantly
- feeding latency (Oprm1−/− mice [6]; Oprm1−/− mice, bumetanide 0.5 mg/kg i.p. daily): did not modify significantly
- behavioural signs of anxiety (overall) (Oprm1−/− mice [6]; Oprm1−/− mice, marble burying and novelty-suppressed feeding, bumetanide 0.5 mg/kg): did not show effects
- rate of same arm returns (cognitive stereotypies) (Oprm1−/− mice [7]): reduced
- rate of same arm returns (cognitive stereotypies) (Oprm1−/− mice [7]; listed as Bumetanide): reduced cognitive stereotypies; also recorded: similarly reduced
- rates of spontaneous alternation and alternate arm returns (Oprm1−/− mice [7]; all animals): did not modify
